Consider 2 compounds from PMC6886544.

Read-outs that look alike come from different tables or passages of the source.

Series [1] has as its target EGFR-wt (Homo sapiens, UniProt P00533). Briefly: HTRF KinEASE-TK activity-based assay, EGFR-wt. As to conditions: EGFR HTRF IC50 wt, ATP at Km (9.5 µM), 30 min preincubation; mean ± SD of three independent measurements in duplicates.
For series [2], the system named is H1975 cells (EGFR-L858R/T790M). Description: CellTiter-Glo viability assay, H1975. As to conditions: Homo sapiens, NCI-H1975, 96 h, read-out: EGFR CTG EC50 H1975, H1975, 96 hours, CellTiter-Glo.
Method: (§6) A431, HCC827, H1975, A549 and H358 cells were obtained from the American Type Culture Collection (ATCC). A431 cells were cultured in DMEM high glucose media (Life Technologies, Germany), and HCC827, H1975, A549 as well as H358 cells were cultured in RPMI media (Life Technologies, Germany), both containing L-Glutamine and were supplemented with 10% FBS (GE Healthcare, Austria) and 1% PenStrep (Life Technologies, Germany) in a humidified incubator at 37 °C and 5% CO2.
(§7) Cells were seeded at cell numbers that assure linearity and optimal signal intensity (150-300 cells/well, 25 µL) and cultured for 24 hours in serum- and antibiotics-containing media in humidified chambers at 37 °C / 5% CO2. The cells were then treated with EGFR inhibitors in serial
(§8) Afterwards viability studies were carried out using CellTiter-Glo Assay (Promega, USA) that is a homogeneous method of determining the number of viable cells in culture. It is based on quantification of ATP, indicating the presence of metabolically active cells. For these studies, CellTiter-Glo reagent was prepared according to the instructions of the kit and diluted 1:1 with the complete growth medium suitable for the corresponding cell line. Thereon, reagent and assay plates were equilibrated at room temperature for 20 min. Equal volumes of the reagent were added to the volume of culture medium present in each well (25 µL). The plates were mixed for 2 minutes on an orbital shaker to induce cell lysis. The microplates were then incubated at room temperature for 20 minutes for stabilization of the luminescent signal. Following incubation the luminescence was recorded on an EnVision microplate reader (Perkin Elmer) using 500 ms integration time. The data was then analyzed using the Quattro Research Software Suite for EC50-determination. As quality control the Z’-factor was calculated from 16 positive and negative control values. Only assay results showing a Z’-factor ≥0.5 were used for further analysis. All data points were measured in duplicates for each plate and were replicated in at least two plates.
Series [3] has as its system A431 cells (EGFR wild type). Briefly: CellTiter-Glo viability assay, A431. Background: In ATP-based viability assays light output follows the ATP content of the culture.
In series [4] the test system is A549 cells (KRAS mutant). Briefly: CellTiter-Glo viability assay, A549. As to conditions: Homo sapiens.
A short description of series [5]: Microsomal stability (phase I), mouse. Format: in vitro ADME. The note with it: mouse liver microsomes, up to 60 minutes, 37 °C. The procedure: Microsomal stability (phase I) assay.
Metabolic stability under oxidative conditions was measured in liver microsomes from different
time up to 50 minutes (HLM) or 60 minutes (MLM) at 37 °C. Based on the compound half-life t1/2,
the in vitro intrinsic clearance CLint was calculated. […]
In general terms: Liver microsomes are vesicles of endoplasmic reticulum, rich in cytochrome P450 enzymes.

Series [6] has as its target JAK3 (Homo sapiens, UniProt P52333). Description: SelectScreen kinase profiling, JAK3. Format: biochemical. The note with it: mean ± SD of one measurement in duplicates. How it is done: (§1) Kinase profiling of compound 17a at a concentration of 1 µM generated with the SelectScreen® Profiling Service from Life Technologies.
(§2) Figure S2. Kinase profiling of compound 17a, Illustration as waterfall plot. 9 Kinases harboring a Cysteine isostructural to Cys797 in EGFR are highlighted
(§3) Kinase % inhibition Kinase % inhibition […]
(§4) aValues are the mean ± SD of one measurement in duplicates; bKinases harboring a Cysteine isostructural to Cys797 […]
(§5) (1 picture or pasted object on this page, not shown here)

Series [7] has as its system H358 cells (KRAS mutant). Description: CellTiter-Glo viability assay, H358.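 Note: viable cell number estimated from ATP-dependent luminescence following exposure to serially diluted inhibitor.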 The series is classed as cell-based. The note with it: Homo sapiens, NCI-H358.
The target in series [8] is ROS1 (Homo sapiens, UniProt P08922). Description: SelectScreen kinase profiling, ROS1. The series is classed as biochemical. As to conditions: mean ± SD of one measurement in duplicates. The procedure:
as §1, §2, §3, §4, §5

Series [9] addresses EGFR-L858R (Homo sapiens, UniProt P00533, L858R). Description: HTRF KinEASE-TK activity-based assay, EGFR-L858R. (In general: TR-FRET usually uses a lanthanide donor and a delayed reading to cut background.)
The target of series [10] is EGFR-L858R/T790M (Homo sapiens, UniProt P00533, L858R/T790M). Description: HTRF KinEASE-TK activity-based assay, EGFR-L858R/T790M. As to conditions: EGFR HTRF IC50 L858R/T790M, ATP at Km (4 µM), 30 min preincubation; mean ± SD of three independent measurements in duplicates.
Series [11] has as its target LCK (Homo sapiens, UniProt P06239). Briefly: SelectScreen kinase profiling, LCK. Format: biochemical. The note with it: mean ± SD of one measurement in duplicates. The procedure:
as §1, §2, §3, §4, §5

Series [12] concerns HCC827 cells (EGFR-delE746_A750). Briefly: CellTiter-Glo viability assay, HCC827.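 Note: luminescence from ATP content as a measure of metabolically active cells, in RPMI with 10% FBS, compound added as serial dilutions after 24 h of preculture.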 The series is classed as cell-based. The note with it: Homo sapiens; HCC827, 96 hours, CellTiter-Glo; read-out: EGFR CTG EC50 HCC827.
Method: as §6, §7, §8
Series [13] deals with EGFR-T790M (Homo sapiens, UniProt P00533, T790M). Briefly: Mass spectrometry analysis of covalent bond formation. Format: binding. More on the design: made in house; host or cells: Sf9 insect cells (BacMagic system). The note with it: EGFR-T790M incubated with inhibitor on ice for 1 h. From the text: captured and quantified using a FUJI LAS3000 system with Science Lab 2001 ImageGauge 4.0 software (Fujifilm Medial Systems, Stamford CT, USA).
Rabbit antibodies specific for phospho-EGFR (Tyr1045), EGFR, Akt, phospho-Akt (Ser473), p42/44 mitogen-activated protein kinase (MAPK), phospho-p44/42 MAPK (Thr202/Tyr204), S6 ribosomal protein, phospho-S6 ribosomal protein (Ser235/236), mouse anti-β-actin antibody as well as HRP-conjugated anti-rabbit and anti-mouse secondary antibodies were purchased from Cell Signaling (Frankfurt, Germany; Beverly, MA).
Mass spectrometry experiments.
We used the drug-resistant mutant EGFR-T790M variant for MS experiments. We incubated a […]
glycerol, 1 mM TCEP, pH 8) on ice for 1 h. We analyzed the aliquots by ESI-MS using an Thermo Fisher Scientific Dionex UltiMate 3000 HPLC system connected to a Thermo Fisher Scientific Velos Pro (2d ion trap). Therefore, 5 μL of sample was injected and separated using a Vydac 214TP C4 5 μm column (150 mm x 2.1 mm) starting at 20% of solvent B for 5 minutes followed by a gradient up to 90% of solvent B over 14 min with a flow rate of 210 μL/min with 0.1% TFA in water as solvent A and 0.1% TFA in MeCN as solvent B. A mass range of 700 to 2000 m/z was scanned and raw data was deconvoluted and analyzed with MagTran software (Z.Q. Zhang, A.G. […]

Setting [14] is: Homo sapiens, A-431, 96 h, read-out: EGFR CTG EC50 A431, A431, 96 hours, CellTiter-Glo.
Setting [15] is: A549, 96 h, read-out: KRAS CTG EC50 A549.
Setting [16] is: H358, 96 hours, CellTiter-Glo, read-out: KRAS CTG EC50 H358.

EGFR-wt, sequence (P00533 25-1210): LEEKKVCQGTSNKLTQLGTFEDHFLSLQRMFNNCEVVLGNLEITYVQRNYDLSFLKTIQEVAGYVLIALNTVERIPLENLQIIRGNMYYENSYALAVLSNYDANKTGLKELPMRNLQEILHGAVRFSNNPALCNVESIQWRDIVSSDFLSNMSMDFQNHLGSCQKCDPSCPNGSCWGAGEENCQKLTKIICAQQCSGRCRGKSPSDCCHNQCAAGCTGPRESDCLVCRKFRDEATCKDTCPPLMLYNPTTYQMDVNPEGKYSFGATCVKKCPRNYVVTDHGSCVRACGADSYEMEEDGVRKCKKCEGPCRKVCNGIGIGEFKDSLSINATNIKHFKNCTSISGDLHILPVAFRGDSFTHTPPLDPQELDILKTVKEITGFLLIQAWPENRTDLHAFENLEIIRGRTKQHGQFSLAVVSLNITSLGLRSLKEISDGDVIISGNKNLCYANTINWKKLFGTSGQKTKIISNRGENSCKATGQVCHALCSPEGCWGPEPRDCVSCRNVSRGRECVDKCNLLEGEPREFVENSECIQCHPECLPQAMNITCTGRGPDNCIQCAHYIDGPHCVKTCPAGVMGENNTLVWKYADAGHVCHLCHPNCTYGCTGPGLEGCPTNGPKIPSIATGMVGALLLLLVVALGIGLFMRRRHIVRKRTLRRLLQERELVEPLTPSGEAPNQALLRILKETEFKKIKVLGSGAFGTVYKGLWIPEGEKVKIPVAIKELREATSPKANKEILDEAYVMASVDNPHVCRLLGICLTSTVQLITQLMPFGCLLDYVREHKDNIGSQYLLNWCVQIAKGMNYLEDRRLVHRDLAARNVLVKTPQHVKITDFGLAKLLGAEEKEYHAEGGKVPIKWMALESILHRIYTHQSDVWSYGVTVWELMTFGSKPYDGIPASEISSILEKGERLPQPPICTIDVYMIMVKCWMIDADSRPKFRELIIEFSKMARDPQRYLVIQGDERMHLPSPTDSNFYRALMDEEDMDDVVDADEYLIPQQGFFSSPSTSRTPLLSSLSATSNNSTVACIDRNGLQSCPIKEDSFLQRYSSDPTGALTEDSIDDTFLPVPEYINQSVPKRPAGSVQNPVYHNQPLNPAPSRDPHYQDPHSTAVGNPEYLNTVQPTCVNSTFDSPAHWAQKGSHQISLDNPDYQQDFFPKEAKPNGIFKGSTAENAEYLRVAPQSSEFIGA
EGFR-L858R, sequence (P00533 25-1210 L858R): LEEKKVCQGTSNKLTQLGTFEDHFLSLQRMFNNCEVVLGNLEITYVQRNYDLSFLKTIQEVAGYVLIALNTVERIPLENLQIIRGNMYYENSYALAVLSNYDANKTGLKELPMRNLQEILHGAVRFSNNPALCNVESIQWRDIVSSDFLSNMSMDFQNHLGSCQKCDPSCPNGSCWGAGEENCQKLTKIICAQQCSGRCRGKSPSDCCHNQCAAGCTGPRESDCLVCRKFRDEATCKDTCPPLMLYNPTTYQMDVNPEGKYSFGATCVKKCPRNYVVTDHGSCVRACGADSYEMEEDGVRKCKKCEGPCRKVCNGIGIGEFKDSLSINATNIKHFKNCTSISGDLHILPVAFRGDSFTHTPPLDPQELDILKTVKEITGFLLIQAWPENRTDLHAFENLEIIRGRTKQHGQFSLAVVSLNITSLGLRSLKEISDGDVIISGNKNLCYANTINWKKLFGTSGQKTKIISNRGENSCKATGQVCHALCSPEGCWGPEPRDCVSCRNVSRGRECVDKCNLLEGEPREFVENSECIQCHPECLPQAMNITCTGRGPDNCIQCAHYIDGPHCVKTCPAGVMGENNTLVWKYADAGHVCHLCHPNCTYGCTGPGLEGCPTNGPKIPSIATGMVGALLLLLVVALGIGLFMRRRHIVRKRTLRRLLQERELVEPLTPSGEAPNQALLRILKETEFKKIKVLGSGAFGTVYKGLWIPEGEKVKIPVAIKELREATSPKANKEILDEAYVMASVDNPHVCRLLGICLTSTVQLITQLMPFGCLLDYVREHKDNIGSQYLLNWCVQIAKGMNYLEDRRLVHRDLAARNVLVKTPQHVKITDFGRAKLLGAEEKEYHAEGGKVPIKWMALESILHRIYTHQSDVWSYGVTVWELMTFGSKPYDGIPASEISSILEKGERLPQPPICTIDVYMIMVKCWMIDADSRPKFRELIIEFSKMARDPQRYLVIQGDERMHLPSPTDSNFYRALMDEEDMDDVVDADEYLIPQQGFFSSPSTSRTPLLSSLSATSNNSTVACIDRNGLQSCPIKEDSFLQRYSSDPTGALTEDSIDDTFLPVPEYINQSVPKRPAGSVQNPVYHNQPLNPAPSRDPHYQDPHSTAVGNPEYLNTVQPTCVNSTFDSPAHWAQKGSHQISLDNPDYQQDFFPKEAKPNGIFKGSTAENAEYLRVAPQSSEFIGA
EGFR-L858R/T790M, sequence (P00533 25-1210 T790M/L858R): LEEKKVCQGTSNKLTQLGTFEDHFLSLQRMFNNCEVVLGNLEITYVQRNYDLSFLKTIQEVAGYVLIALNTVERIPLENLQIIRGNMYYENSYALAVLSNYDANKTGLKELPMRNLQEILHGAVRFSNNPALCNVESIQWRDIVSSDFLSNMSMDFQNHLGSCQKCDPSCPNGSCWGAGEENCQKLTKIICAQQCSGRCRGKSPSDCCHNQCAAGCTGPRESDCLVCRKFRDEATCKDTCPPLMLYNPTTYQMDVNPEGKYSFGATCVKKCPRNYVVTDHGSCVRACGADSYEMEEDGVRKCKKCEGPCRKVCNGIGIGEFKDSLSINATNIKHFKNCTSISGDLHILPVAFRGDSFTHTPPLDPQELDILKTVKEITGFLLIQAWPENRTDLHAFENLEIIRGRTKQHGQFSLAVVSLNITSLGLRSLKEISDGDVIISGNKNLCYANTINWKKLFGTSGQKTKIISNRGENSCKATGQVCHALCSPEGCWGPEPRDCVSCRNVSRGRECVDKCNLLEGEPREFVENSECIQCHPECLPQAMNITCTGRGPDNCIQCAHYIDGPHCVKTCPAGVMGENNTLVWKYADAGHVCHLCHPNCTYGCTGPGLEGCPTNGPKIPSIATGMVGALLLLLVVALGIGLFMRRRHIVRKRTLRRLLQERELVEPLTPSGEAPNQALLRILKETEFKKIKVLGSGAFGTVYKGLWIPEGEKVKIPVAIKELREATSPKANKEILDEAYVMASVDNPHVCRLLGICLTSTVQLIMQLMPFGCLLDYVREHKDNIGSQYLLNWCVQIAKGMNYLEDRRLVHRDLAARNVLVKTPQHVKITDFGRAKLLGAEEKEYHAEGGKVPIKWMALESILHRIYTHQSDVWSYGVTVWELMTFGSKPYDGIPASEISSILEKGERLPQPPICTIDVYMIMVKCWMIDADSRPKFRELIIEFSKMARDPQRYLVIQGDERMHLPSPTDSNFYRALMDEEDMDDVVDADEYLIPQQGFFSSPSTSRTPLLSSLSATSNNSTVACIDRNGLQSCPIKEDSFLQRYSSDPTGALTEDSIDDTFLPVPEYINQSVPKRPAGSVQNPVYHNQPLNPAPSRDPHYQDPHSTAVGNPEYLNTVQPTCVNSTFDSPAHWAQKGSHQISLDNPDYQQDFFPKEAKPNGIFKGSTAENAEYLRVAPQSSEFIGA
LCK, sequence (P06239 whole entry): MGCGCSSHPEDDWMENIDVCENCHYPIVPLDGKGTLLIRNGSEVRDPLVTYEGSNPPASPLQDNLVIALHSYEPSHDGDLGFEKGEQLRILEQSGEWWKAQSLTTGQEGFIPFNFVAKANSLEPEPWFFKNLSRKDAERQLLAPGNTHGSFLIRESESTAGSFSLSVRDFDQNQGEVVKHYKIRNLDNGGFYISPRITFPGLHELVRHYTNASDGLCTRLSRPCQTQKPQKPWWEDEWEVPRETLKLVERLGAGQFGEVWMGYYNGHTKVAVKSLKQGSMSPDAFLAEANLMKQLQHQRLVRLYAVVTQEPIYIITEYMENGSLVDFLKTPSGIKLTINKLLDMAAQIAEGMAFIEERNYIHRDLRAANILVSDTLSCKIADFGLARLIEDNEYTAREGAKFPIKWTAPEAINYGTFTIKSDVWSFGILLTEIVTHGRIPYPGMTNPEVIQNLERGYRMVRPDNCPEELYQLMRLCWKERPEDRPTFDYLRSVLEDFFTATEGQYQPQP
EGFR-T790M, sequence (P00533 712-979 T790M limits assumed): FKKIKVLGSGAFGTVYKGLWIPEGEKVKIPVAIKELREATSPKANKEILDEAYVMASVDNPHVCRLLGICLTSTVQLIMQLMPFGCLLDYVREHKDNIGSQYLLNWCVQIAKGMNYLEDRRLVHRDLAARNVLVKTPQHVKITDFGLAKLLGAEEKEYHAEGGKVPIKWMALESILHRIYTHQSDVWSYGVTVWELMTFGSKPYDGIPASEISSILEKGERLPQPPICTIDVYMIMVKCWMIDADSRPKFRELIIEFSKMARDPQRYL

The term IC50 denotes the concentration that inhibits the measured activity by half. Higher therefore signals weaker potency. The term EC50 denotes the concentration at which the effect is half-maximal. As usually defined, the microsomal CLint is the capacity of the preparation to metabolise the compound, expressed as a volume cleared per time. A low value points to greater metabolic stability. As a reminder, the inhibition is the change of the read-out against control, counted positive when it falls. Lower therefore signals a response near the control. For the compound `C=CC(=O)Nc1cccc(-c2c(-c3ccc(CN4CCN(C)CC4)cc3)[nH]c3ncnc(OC)c23)c1` [Compound 17a], the figures for the IC50 in series [1], in [9] and in series [10] were 15 ± 10 nM, 2.3 ± 0.4 nM and 4 ± 1.7 nM, respectively. Besides, the half-maximal effective concentration (EC50) is 137 ± 51 nM in [2]; 700 nM in series [3] (setting [14]); 768 ± 271 nM in series [3] (read-out: EGFR CTG EC50 A431, A431, 96 hours, CellTiter-Glo); 2500 ± 1630 nM in [4] (setting [15]); 2910 ± 1470 nM in series [7] (setting [16]); < 14 nM in [12]. Besides, the microsomal CLint at 3 µM in series [5] was 26 µL/min/mg. Also, the inhibition at 1 µM is 91 ± 2% in series [6], 92% in series [8] and 80% in series [11].

As for `C=CC(=O)Nc1cccc(-c2c(-c3ccc(N4CCN(C)CC4)cc3)[nH]c3ncnc(OCC(C)C)c23)c1` [Compound 19h], the IC50 is 0.2 ± 0.2 nM in series [1], < 0.1 nM in series [9] and < 0.1 nM in series [10]. In addition, the EC50 in [2] was determined as 51 ± 19 nM; in series [3] (setting [14]), 1680 ± 402 nM; in series [3] (Homo sapiens, A-431, read-out: EC50 A431, A431, rounded value in running text), 1700 nM; in series [4] (setting [15]), 3650 ± 1750 nM; in [4] (A549, read-out: EC50 A549), 3700 nM; in [7] (setting [16]) it was 3690 ± 1460 nM. The EC50 is 3700 nM in series [7] (H358, rounded value in running text, read-out: EC50 H358) and < 14 nM in series [12]. Moreover, in [5], the microsomal CLint at 3 µM is 46 µL/min/mg. In series [13], the “covalent labelling by tandem mass spectrometry” value is reported as “specific single alkylation of Cys797”.
